How the values were obtained:
[1] = system: mammary fibroblasts (MFBs); assay: Western blot of MFBs; assay type: cell-based, mouse; settings: TGFβ
Excerpt: NIH-3T3 cells were obtained from ATCC (CRL-1658); 293 T cells were obtained from ATCC (CRL-3216). PSCs were isolated from C57BL/6 mice by differential centrifugation as previously described^49 and their mesenchymal origin was validated by analyzing the expression of various mesenchymal and epithelial markers. MFBs were isolated from FVB/N mice by differential centrifugation as previously described^50. DB7 mouse breast cancer cells were obtained from Alexander Borowsky (University of California Davis Comprehensive Cancer Center, Sacramento, CA, USA) through an MTA to Ohio State University (OSU). KPC (Kras^LSL-G12D; Trp53^LSL-R172H; Pdx1-Cre) mouse PDAC cells were a gift from Scott Lowe (Memorial Sloan Kettering Cancer Center. (MSKCC)). […]
Lysates were generated by incubating cells or ground tumors in RIPA buffer (Millipore); […] of cleared lysate were analyzed by SDS-polyacrylamide gel electrophoresis (SDS-PAGE) as previously described^11. […] Quantification of band intensities of collagen I relative to […] or vinculin in tumor allograft experiments was performed with Image Lab software v6.0 (Bio-Rad).

[2] = system: mammary fibroblasts (MFBs); assay: Collagen abundance in ECM derived from confluent MFBs; assay type: cell-based, mouse; settings: Gln 20% or lower, TGFβ (FIG. 8F)
Method: Culture plates were coated with 0.1% gelatin (Sigma) and treated with 1% glutaraldehyde (Sigma) and 1 M ethanolamine (Sigma). Confluent NIH-3T3 cells, MFBs or PSCs were grown for 6 days on coated plates in the presence of […] sodium ascorbate (Sigma) and treated as indicated, and the medium was replaced every other day. Plates were decellularized with 20 mM ammonium hydroxide/0.5% Triton-X 100 for 5 min on a rotating platform. Three times the volume of PBS was added, and ECM was equilibrated overnight at 4° C., followed by four additional PBS washes. For western blot, preheated sample buffer supplemented with 1 mM dithiothreitol (DTT) was added, ECM was scraped off and boiled, and proteins were separated by SDS-PAGE followed by immunoblotting. To measure collagen abundance, fibroblast-derived ECM was stained with the Picro Sirius Red Stain Kit (Abcam) according to the manufacturer's instructions. The stain was extracted with 0.1 M sodium hydroxide (NaOH) and optical density was measured at 550 nm using a microplate reader. Differences in cell number were controlled for by growing cells on separate plates under the same experimental conditions.

Substance: TGFβ: transforming growth-factor beta; TGFβ-1 purchased from Peprotech
- collagen I production ([1]; 20% Gln, 48 hours): unable to proliferate and produce collagen I
- GCN2 phosphorylation ([1]; low Gln (20%), 48 hours (FIG. 8K)): showed GCN2 phosphorylation
- collagen accumulation in the ECM [2]: could no longer stimulate
